Data from article PMC9964746, “Mechanism of Action and Structure–Activity Relationships of Tetracyclic Small Molecules Acting as Universal Positive Allosteric Modulators of the Cholecystokinin Receptor” (Membranes, 2023).

Experiments:
CCK1R [1] = target: T1, CCK1R (Homo sapiens, UniProt P32238); experiment: IP-One accumulation TR-FRET assay, PAM format, HEK-293 CCK1R cells; assay type: cell-based; design: expressed in transfected cells; host or cells: HEK-293; conditions: for Emax: HEK293; for EC50: PAM format with EC20 CCK
T1 sequence (P32238 1-428): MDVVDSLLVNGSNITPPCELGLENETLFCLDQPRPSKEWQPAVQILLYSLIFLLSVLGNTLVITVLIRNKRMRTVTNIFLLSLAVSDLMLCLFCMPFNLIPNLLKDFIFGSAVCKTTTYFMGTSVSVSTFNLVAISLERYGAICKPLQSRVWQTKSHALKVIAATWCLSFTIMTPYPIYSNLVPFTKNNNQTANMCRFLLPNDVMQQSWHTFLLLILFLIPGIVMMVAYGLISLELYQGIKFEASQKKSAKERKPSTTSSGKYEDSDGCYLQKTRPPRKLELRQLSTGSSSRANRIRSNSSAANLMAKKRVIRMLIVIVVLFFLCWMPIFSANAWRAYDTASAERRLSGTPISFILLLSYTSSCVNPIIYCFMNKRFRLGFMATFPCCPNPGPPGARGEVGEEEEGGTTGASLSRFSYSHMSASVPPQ
In short: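 HEK-293 cells overexpressing CCK1R were plated overnight, then given compounds (top 50 µM, 16-point 2-fold) for 30 min at 37 °C. CCK stimulator with 50 mM LiCl (PAM format) or DMSO (agonist format) followed for 1 h. IP-One was read by TR-FRET; activity score = CCK-normalized Emax × pEC50.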

[2] = test system: purinergic receptor (P2YR); conditions: off-target screen ref 6; cited from earlier work
CCK2R = target: T2, CCK2R (Homo sapiens, UniProt P32239); experiment: Intracellular calcium assay (Fura-8-AM) in CHO-CCK2R cells; assay type: cell-based; conditions: compound 10 µM
T2 construct: expressed in transfected cells; host or cells: CHO-K1 (CHO-CCK2R line)
T2 sequence (P32239 1-447): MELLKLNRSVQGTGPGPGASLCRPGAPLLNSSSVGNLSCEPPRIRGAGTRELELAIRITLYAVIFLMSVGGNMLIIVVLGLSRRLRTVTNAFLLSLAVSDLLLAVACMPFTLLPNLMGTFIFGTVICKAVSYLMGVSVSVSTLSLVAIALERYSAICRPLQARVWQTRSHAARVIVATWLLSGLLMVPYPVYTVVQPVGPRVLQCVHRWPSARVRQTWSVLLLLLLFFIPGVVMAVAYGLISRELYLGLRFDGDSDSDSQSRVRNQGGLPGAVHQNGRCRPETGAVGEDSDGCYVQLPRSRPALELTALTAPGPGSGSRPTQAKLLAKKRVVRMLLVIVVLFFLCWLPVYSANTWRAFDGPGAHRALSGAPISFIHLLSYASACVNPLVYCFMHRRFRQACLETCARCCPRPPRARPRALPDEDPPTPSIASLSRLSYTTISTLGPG
Method: Biological activity was quantified in the CHO cell lines described above using intracellular calcium assays that were performed, as previously described, using Fura-8-AM (AAT Bioquest, Pleasonton, CA, USA). Full agonist dose–response curves were performed along with determination of maximal responses to 0.1 mM ATP, targeting an endogenous receptor present on the parental cells. Concentration–response curves of peak intracellular calcium responses were analyzed and plotted as percentages of maximal responses using non-linear regression analysis in Prism 9.1 (GraphPad).

CCK1R [3] = target: T1, CCK1R; experiment: Receptor internalization assay with alexa488-CCK; assay type: cell-based; design: expressed in transfected cells; host or cells: HEK-293; conditions: hits at 10 µM; cell surface receptor labelled with alexa488-CCK
Method: Receptor internalization assays were performed with the fluorescent alexa488-CCK ligand used to visualize cell surface receptors after treatment and fixation with 2% paraformaldehyde (Electron Microscopy Sciences, Cat# 15710), as we described. Images were acquired with a Zeiss Axiovert 200M inverted epifluorescence microscope.

[4] = HEK-293 CCK1R cells, PAM format, relative to CCK control, average ± SD
[5] = HEK-293 CCK1R cells, PAM format
[6] = HEK-293 CCK1R cells, average ± SD

| CCK1R PAM (IP-One) Score (activity score = normalized Emax × pEC50) (CCK1R [1]; HEK-293 CCK1R cells, PAM format, listed as hit 6) | SMILES | Emax (CCK1R [1]; [4]) [%] | CCK1R PAM (IP-One) Score (activity score = normalized Emax × pEC50) (CCK1R [1]; [5]) | EC50 (CCK1R [1]; [6]) [µM] | Activity at P2YR [2] | Effect on CCK action at CCK2R (intracellular calcium) (CCK2R) | CCK1R internalization (CCK1R [3]) | Log(Rmax/R50) (CCK1R [1]; CCK1R IP-One PAM assay) | CCK1R PAM (IP-One) Emax (CCK1R [1]; [4]) [%] | CCK1R PAM (IP-One) Score (activity score = normalized Emax × pEC50) (CCK1R [1]; HEK-293 CCK1R cells, PAM format, listed as hit 1) | AUC relative to AUC of endogenous agonist CCK (CCK1R [1]; from activity scores, CCK1R IP-One) |
| --- | --- | --- | --- | --- | --- | --- | --- | --- | --- | --- | --- |
| 1.7 | CCCc1nc2oc3c(NCCCN(C)C)ncnc3c2c2c1CCCC2 [CMP-28] | 35 ± 13 | 1.66 | 9.5 ± 3.5 | Neither compound exhibited any activity at the P2YR | no effect on CCK2R | neither “hit” cleared the receptor from the cell surface |  |  |  |  |
|  | CCN(CC)CCNc1ncnc2c1sc1nc(N3CCOCC3)c3c(c12)CCCC3 [CMP-1] | 60 | 2.94 | 12.8 ± 4.6 | Neither compound exhibited any activity at the P2YR | no effect on CCK2R | neither “hit” cleared the receptor from the cell surface | 4.7 | 63 ± 18 | 2.9 | approximately 29% |
